From US20250223281A1, “ANTIDIABETIC COMPOUNDS AND COMPOSITIONS” (REZUBIO PHARMACEUTICALS CO., LTD, priority 2022, published 2025)
pEC50: −log10 of the molar value.

Biological target: T1, GPR40 (Homo sapiens, UniProt O14842)
T1 construct: expressed in transfected cells; host or cells: HEK293 cells stably expressing GPR40 (Hygromycin selection)
Experiment: IP1 accumulation assay in HEK293 cells stably expressing GPR40
Format: cell-based
How it was run: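 HEK293 cells stably expressing human GPR40 were incubated with compounds (10-point, 3-fold dilution series) for 2 h at 37 °C, then IP1 was detected by HTRF (665/615 nm ratio). Effect was normalised to DMSO blank and AMG-1638 as 100%, and EC50 was derived from dose curves.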

[1] = IP1 accumulation, HEK293 cells stably expressing GPR40, 2 hours at 37° C., % effect relative to AMG-1638, table of Biological Example 1
[2] = Table A-8 (additional examples), obtained by methods of Biological Example 1
[3] = Tables A-1a to A-7b (structure-property relationship), obtained by methods of Biological Example 1

T1 sequence (O14842 whole entry): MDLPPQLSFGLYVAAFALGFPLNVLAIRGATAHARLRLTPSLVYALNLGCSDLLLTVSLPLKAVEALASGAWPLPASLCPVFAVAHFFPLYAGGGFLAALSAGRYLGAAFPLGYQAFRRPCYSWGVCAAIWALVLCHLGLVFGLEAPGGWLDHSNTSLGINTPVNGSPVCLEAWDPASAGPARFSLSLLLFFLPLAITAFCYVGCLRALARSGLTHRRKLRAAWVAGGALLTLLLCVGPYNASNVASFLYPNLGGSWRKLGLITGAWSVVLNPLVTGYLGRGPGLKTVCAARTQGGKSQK

SMILES	pEC50 [1]	pEC50 [2]	pEC50 [3]
C[C@H](C(=O)O)[C@H](c1ccc2c(c1)O[C@@H](C1CCN(Cc3cc(-n4cc(COCCOCCOCCOCCOCC(=O)NCC[N+](C)(CCC(=O)NCCN)CCC(=O)NCCN)nn4)ccc3OC(F)(F)F)CC1)CC2)C1CC1 [Example 176]	< 5.00	< 5.00	–
COc1ccc(C(=O)N(CC(C)(C)CCn2cc(COCCOCCOCCOCCOCC(=O)NCC[N+](C)(CCC(=O)NCCN)CCC(=O)NCCN)nn2)c2cccc(C)n2)c(N2CCC(c3cc4ccc([C@@H](CC(=O)O)C5CC5)cc4o3)CC2)c1 [Example 178]	5.69	–	–
COc1ccc(F)c(-n2nnc(COc3cccc([C@@H](CC(=O)O)C4CC4)c3)c2CC(C)(C)Cn2cc(CCCCCCCCCCCCCCCC(=O)NCCN(CCC(=O)NCCN)CCC(=O)NCCN)nn2)c1 [Example 179]	7.30	–	–
COc1ccc(F)c(-n2nnc(COc3cccc([C@@H](CC(=O)O)C4CC4)c3)c2CC(C)(C)Cn2cc(COCCOCCOCCOCCOCC(=O)NCCN(CCC(=O)NCCN)CCC(=O)NCCN)nn2)c1 [Example 180]	< 5.00	–	–
COc1ccc(F)c(-n2nnc(COc3cccc([C@@H](CC(=O)O)C4CC4)c3)c2CC(C)(C)Cn2cc(COCCOCCOCCOCCOCC(=O)NCC[N+](C)(CCC(=O)NCCN)CCC(=O)NCCN)nn2)c1 [Example 182]	< 5.00	–	–
C[C@H](C(=O)O)[C@H](c1ccc2c(c1)O[C@@H](C1CCN(Cc3cc(-n4cc(CCCCCCCCCCCCCCCC(=O)NCCN(CCC(=O)NCCN)CCC(=O)NCCN)nn4)ccc3OC(F)(F)F)CC1)CC2)C1CC1 [Example 185]	10.30	10.30	10.30
C[C@H](C(=O)O)[C@H](c1ccc2c(c1)O[C@@H](C1CCN(Cc3cc(-n4cc(CCCCCCCCCCCCCCCC(=O)NCC[N+](C)(CCC(=O)NCCN)CCC(=O)NCCN)nn4)ccc3OC(F)(F)F)CC1)CC2)C1CC1 [Example 186]	10.52	10.30	10.30
COc1ccc(F)c(-c2ccc(COc3cccc([C@@H](CC(=O)O)C4CC4)c3)cc2CC(C)(C)Cn2cc(CCCCCCCCCCCCCCCC(=O)NCCN(CCC(=O)NCCN)CCC(=O)NCCN)nn2)c1 [Example 187]	8.87	8.87	8.87
COc1ccc(F)c(-c2ccc(COc3cccc([C@@H](CC(=O)O)C4CC4)c3)cc2CC(C)(C)Cn2cc(CCCCCCCCCC(=O)NCCN(CCC(=O)NCCN)CCC(=O)NCCN)nn2)c1 [Example 191]	6.69	6.68	6.69
COc1ccc(F)c(-c2ccc(COc3cccc([C@@H](CC(=O)O)C4CC4)c3)cc2CC(C)(C)Cn2cc(CCCCCCCCCC(=O)NCC[N+](C)(CCC(=O)NCCN)CCC(=O)NCCN)nn2)c1 [Example 192]	6.60	6.60	6.60

The next lines start with the values.

pEC50 [1]	pEC50 [2]	pEC50 [3]	SMILES
10.10	–	–	COc1ccc(C(=O)N(CC(C)(C)CCn2cc(CCCCCCCCCCCCCCC(=O)NCC[N+](C)(CCC(=O)NCCN)CCC(=O)NCCN)nn2)c2cccc(C)n2)c(N2CCC(c3cc4ccc([C@@H](CC(=O)O)C5CC5)cc4o3)CC2)c1 [Example 177]
7.79	–	–	COc1ccc(F)c(-n2nnc(COc3cccc([C@@H](CC(=O)O)C4CC4)c3)c2CC(C)(C)Cn2cc(CCCCCCCCCCCCCCCC(=O)NCC[N+](C)(CCC(=O)NCCN)CCC(=O)NCCN)nn2)c1 [Example 181]
8.82	8.82	8.82	COc1ccc(F)c(-c2ccc(COc3cccc([C@@H](CC(=O)O)C4CC4)c3)cc2CC(C)(C)Cn2cc(CCCCCCCCCCCCCCCC(=O)NCC[N+](C)(CCC(=O)NCCN)CCC(=O)NCCN)nn2)c1 [Example 188]
10.30	–	10.30	COc1ccc(C(=O)N(CC(C)(C)CCCCCCn2cc(CCCCCCCCCCCCCC(=O)NCCN(CCC(=O)NCCN)CCC(=O)NCCN)nn2)c2cccc(C)n2)c(N2CCC(COc3cc([C@@H](CC(=O)O)C4CC4)ccn3)CC2)c1 [Example 189]
10.30	–	10.30	COc1ccc(C(=O)N(CC(C)(C)CCCCCCn2cc(CCCCCCCCCCCCCC(=O)NCC[N+](C)(CCC(=O)NCCN)CCC(=O)NCCN)nn2)c2cccc(C)n2)c(N2CCC(COc3cc([C@@H](CC(=O)O)C4CC4)ccn3)CC2)c1 [Example 190]
